Holding throughout (conditions): Compound concentration 10 µM
Experiment [1] concerns the target 5-hydroxytryptamine receptor 1E (Homo sapiens) (UniProt P28566).
Description: PDSP Primary Binding target: HTR1E - Compounds are tested at 10 uM concentration, plate are incubated at room temperature in the dark for 90 minutes. Reaction are stopped by vacuum filtration onto 0.3% polyethyleneimine soaked filter mats using Filtermate harvester. Scintilation cocktail is then melted onto microwave-dried filters on a hot plate and the radio activity is counted in Microbia counter.
Experiment [2] has as its target Beta-3 adrenergic receptor (Homo sapiens) (UniProt P13945).
Description: PDSP Primary Binding target: ADRB3 - Compounds are tested at 10 uM concentration, plate are incubated at room temperature in the dark for 90 minutes. Reaction are stopped by vacuum filtration onto 0.3% polyethyleneimine soaked filter mats using Filtermate harvester. Scintilation cocktail is then melted onto microwave-dried filters on a hot plate and the radio activity is counted in Microbia counter.
Experiment [3] addresses T1, 5-hydroxytryptamine receptor 3A (Homo sapiens) (UniProt P46098).
T1 sequence (whole entry): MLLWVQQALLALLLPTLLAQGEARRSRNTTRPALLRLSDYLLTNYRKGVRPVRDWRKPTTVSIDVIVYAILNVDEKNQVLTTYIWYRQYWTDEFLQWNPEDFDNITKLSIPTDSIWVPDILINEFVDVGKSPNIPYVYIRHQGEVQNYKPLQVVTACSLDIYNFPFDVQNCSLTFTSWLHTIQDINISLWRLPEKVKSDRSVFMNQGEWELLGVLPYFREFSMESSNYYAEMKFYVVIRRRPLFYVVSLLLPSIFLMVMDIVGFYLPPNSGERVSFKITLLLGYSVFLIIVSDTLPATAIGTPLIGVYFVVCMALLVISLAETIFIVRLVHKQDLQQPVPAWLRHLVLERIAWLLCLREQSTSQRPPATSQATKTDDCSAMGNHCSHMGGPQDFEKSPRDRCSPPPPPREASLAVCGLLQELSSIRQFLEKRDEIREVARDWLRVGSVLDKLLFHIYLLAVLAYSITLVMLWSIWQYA
Description: PDSP Primary Binding target: HTR3A - Compounds are tested at 10 uM concentration, plate are incubated at room temperature in the dark for 90 minutes. Reaction are stopped by vacuum filtration onto 0.3% polyethyleneimine soaked filter mats using Filtermate harvester. Scintilation cocktail is then melted onto microwave-dried filters on a hot plate and the radio activity is counted in Microbia counter.

The target of experiment [4] is Sigma intracellular receptor 2 (Homo sapiens) (UniProt Q5BJF2).
Description: PDSP Primary Binding target: TMEM97 - Compounds are tested at 10 uM concentration, plate are incubated at room temperature in the dark for 90 minutes. Reaction are stopped by vacuum filtration onto 0.3% polyethyleneimine soaked filter mats using Filtermate harvester. Scintilation cocktail is then melted onto microwave-dried filters on a hot plate and the radio activity is counted in Microbia counter.
The target of experiment [5] is T2, 5-hydroxytryptamine receptor 2C (Homo sapiens) (UniProt P28335).
T2 sequence (whole entry): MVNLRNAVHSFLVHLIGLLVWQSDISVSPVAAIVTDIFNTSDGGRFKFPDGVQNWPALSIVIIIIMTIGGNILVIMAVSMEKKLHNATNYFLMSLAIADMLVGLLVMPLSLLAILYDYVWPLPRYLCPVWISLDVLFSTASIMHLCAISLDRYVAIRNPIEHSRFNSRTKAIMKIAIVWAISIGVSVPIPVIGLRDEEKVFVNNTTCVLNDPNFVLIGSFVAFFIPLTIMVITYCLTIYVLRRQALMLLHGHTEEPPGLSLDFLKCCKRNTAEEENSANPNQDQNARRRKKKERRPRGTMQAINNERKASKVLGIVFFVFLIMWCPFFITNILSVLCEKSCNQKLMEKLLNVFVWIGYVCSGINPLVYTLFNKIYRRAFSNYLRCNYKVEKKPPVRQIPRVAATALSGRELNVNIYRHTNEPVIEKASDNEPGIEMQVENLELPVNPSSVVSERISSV
Description: PDSP Primary Binding target: HTR2C - Compounds are tested at 10 uM concentration, plate are incubated at room temperature in the dark for 90 minutes. Reaction are stopped by vacuum filtration onto 0.3% polyethyleneimine soaked filter mats using Filtermate harvester. Scintilation cocktail is then melted onto microwave-dried filters on a hot plate and the radio activity is counted in Microbia counter.

The target in experiment [6] is T3, Alpha-2A adrenergic receptor (Homo sapiens) (UniProt P08913).
T3 sequence (whole entry): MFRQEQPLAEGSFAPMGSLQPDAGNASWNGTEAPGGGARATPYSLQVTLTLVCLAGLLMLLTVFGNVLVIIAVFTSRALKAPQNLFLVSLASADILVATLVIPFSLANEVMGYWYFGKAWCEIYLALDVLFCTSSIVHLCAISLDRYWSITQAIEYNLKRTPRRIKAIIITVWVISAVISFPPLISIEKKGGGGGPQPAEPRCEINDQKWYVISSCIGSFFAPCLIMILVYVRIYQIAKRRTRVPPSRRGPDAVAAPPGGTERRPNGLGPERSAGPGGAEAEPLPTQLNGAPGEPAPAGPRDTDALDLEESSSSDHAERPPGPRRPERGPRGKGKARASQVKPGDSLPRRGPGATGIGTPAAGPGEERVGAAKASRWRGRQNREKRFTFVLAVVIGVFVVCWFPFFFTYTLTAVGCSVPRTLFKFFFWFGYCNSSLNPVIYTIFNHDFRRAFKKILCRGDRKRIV
Description: PDSP Primary Binding target: ADRA2A - Compounds are tested at 10 uM concentration, plate are incubated at room temperature in the dark for 90 minutes. Reaction are stopped by vacuum filtration onto 0.3% polyethyleneimine soaked filter mats using Filtermate harvester. Scintilation cocktail is then melted onto microwave-dried filters on a hot plate and the radio activity is counted in Microbia counter.

The target of experiment [7] is 5-hydroxytryptamine receptor 6 (Homo sapiens) (UniProt P50406).
Description: PDSP Primary Binding target: HTR6 - Compounds are tested at 10 uM concentration, plate are incubated at room temperature in the dark for 90 minutes. Reaction are stopped by vacuum filtration onto 0.3% polyethyleneimine soaked filter mats using Filtermate harvester. Scintilation cocktail is then melted onto microwave-dried filters on a hot plate and the radio activity is counted in Microbia counter.
In experiment [8] the target is 5-hydroxytryptamine receptor 7 (Homo sapiens) (UniProt P34969).
Description: PDSP Primary Binding target: HTR7 - Compounds are tested at 10 uM concentration, plate are incubated at room temperature in the dark for 90 minutes. Reaction are stopped by vacuum filtration onto 0.3% polyethyleneimine soaked filter mats using Filtermate harvester. Scintilation cocktail is then melted onto microwave-dried filters on a hot plate and the radio activity is counted in Microbia counter.
Experiment [9] addresses T4, Muscarinic acetylcholine receptor M5 (Homo sapiens) (UniProt P08912).
T4 sequence (whole entry): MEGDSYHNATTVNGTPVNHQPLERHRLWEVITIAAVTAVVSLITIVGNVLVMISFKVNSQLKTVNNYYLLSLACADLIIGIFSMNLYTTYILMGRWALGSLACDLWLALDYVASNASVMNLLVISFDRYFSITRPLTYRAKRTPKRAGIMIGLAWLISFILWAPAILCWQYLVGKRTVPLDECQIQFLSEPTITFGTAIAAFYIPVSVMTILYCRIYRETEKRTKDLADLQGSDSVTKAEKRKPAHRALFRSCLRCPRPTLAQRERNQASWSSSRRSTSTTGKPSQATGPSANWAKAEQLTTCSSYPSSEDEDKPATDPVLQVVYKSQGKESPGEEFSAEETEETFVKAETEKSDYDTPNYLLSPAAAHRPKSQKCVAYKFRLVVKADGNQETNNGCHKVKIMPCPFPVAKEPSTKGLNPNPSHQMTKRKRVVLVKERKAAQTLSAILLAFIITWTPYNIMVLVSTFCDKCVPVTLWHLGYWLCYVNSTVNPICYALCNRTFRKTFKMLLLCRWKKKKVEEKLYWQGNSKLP
Description: PDSP Primary Binding target: CHRM5 - Compounds are tested at 10 uM concentration, plate are incubated at room temperature in the dark for 90 minutes. Reaction are stopped by vacuum filtration onto 0.3% polyethyleneimine soaked filter mats using Filtermate harvester. Scintilation cocktail is then melted onto microwave-dried filters on a hot plate and the radio activity is counted in Microbia counter.

In experiment [10] the target is Sodium-dependent serotonin transporter (Homo sapiens) (UniProt P31645).
Description: PDSP Primary Binding target: SLC6A4 - Compounds are tested at 10 uM concentration, plate are incubated at room temperature in the dark for 90 minutes. Reaction are stopped by vacuum filtration onto 0.3% polyethyleneimine soaked filter mats using Filtermate harvester. Scintilation cocktail is then melted onto microwave-dried filters on a hot plate and the radio activity is counted in Microbia counter.
Experiment [11] has as its target Sodium-dependent noradrenaline transporter (Homo sapiens) (UniProt P23975).
Description: PDSP Primary Binding target: SLC6A2 - Compounds are tested at 10 uM concentration, plate are incubated at room temperature in the dark for 90 minutes. Reaction are stopped by vacuum filtration onto 0.3% polyethyleneimine soaked filter mats using Filtermate harvester. Scintilation cocktail is then melted onto microwave-dried filters on a hot plate and the radio activity is counted in Microbia counter.
The target in experiment [12] is T5, Alpha-1A adrenergic receptor (Homo sapiens) (UniProt P35348).
T5 sequence (whole entry): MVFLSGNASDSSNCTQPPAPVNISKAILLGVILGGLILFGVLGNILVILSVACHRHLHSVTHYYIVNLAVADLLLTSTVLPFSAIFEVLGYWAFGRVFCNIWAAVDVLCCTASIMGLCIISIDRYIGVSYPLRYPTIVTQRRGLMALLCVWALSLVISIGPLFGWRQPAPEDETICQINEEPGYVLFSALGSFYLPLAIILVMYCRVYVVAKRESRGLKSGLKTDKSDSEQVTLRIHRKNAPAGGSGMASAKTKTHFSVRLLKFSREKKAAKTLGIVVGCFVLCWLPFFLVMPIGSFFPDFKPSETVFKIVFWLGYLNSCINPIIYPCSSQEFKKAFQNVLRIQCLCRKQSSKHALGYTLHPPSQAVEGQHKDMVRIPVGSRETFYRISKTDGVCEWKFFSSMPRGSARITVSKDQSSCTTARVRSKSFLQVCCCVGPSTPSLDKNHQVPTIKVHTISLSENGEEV
Description: PDSP Primary Binding target: ADRA1A - Compounds are tested at 10 uM concentration, plate are incubated at room temperature in the dark for 90 minutes. Reaction are stopped by vacuum filtration onto 0.3% polyethyleneimine soaked filter mats using Filtermate harvester. Scintilation cocktail is then melted onto microwave-dried filters on a hot plate and the radio activity is counted in Microbia counter.

Chain of Beta-3 adrenergic receptor (Homo sapiens) (P13945 whole entry, looked up): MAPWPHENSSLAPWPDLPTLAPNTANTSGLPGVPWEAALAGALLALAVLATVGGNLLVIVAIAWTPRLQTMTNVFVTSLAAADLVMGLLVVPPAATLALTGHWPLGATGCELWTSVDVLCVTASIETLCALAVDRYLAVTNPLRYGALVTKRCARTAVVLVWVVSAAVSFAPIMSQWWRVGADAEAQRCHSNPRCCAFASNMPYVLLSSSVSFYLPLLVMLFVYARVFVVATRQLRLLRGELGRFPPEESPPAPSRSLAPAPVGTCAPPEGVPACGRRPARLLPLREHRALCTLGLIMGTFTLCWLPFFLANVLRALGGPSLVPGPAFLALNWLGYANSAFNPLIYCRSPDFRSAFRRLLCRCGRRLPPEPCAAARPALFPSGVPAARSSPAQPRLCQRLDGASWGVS
Chain of Sodium-dependent serotonin transporter (Homo sapiens) (P31645 whole entry, looked up): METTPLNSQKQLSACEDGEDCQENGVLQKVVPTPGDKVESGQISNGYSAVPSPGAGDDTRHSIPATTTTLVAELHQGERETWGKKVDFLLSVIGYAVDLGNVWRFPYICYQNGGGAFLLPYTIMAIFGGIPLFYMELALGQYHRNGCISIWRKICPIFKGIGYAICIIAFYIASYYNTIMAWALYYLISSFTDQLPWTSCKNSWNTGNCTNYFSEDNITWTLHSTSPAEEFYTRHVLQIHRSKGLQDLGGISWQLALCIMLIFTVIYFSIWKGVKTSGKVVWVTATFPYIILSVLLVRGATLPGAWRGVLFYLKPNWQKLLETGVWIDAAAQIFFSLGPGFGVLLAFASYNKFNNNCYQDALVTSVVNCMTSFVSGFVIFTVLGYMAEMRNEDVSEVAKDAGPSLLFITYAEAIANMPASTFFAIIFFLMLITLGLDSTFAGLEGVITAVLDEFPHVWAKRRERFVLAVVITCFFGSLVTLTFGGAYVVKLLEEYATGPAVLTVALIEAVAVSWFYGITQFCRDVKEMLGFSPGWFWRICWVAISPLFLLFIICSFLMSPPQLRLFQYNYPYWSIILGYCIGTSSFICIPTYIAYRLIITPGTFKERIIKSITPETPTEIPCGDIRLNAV
Chain of Sigma intracellular receptor 2 (Homo sapiens) (Q5BJF2 whole entry): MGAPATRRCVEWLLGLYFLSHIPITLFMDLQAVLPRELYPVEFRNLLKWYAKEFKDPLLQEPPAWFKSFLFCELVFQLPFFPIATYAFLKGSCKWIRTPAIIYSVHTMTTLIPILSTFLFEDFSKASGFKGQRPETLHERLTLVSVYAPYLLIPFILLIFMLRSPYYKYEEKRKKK
Chain of Sodium-dependent noradrenaline transporter (Homo sapiens) (P23975 whole entry): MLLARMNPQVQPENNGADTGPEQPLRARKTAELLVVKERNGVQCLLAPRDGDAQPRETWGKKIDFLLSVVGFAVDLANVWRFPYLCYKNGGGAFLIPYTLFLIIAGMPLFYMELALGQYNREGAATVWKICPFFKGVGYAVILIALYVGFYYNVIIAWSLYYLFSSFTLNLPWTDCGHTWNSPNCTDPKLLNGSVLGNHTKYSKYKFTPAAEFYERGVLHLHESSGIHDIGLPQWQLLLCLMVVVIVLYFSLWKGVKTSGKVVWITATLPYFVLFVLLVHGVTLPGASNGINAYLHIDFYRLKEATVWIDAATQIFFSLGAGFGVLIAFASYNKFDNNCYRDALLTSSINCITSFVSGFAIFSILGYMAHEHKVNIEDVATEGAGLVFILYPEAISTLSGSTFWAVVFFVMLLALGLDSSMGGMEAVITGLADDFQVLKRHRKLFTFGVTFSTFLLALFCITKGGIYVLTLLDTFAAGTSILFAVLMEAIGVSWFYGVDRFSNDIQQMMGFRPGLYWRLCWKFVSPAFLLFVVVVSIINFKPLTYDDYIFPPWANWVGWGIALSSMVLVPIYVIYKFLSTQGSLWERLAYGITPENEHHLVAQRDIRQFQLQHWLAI
Chain of 5-hydroxytryptamine receptor 7 (Homo sapiens) (P34969 whole entry): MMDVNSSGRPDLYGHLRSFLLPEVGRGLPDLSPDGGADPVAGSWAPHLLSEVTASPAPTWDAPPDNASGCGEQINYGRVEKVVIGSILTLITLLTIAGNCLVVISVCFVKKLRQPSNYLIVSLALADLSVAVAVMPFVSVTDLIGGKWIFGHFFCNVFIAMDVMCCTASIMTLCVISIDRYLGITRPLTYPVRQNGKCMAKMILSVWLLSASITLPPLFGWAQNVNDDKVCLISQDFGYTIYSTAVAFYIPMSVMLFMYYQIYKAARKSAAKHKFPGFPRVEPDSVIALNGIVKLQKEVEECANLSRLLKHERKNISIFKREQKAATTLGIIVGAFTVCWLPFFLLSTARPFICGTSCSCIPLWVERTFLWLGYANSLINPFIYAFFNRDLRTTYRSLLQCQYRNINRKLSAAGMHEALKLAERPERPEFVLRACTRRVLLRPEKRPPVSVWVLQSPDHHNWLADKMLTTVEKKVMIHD
Chain of 5-hydroxytryptamine receptor 1E (Homo sapiens) (P28566 whole entry): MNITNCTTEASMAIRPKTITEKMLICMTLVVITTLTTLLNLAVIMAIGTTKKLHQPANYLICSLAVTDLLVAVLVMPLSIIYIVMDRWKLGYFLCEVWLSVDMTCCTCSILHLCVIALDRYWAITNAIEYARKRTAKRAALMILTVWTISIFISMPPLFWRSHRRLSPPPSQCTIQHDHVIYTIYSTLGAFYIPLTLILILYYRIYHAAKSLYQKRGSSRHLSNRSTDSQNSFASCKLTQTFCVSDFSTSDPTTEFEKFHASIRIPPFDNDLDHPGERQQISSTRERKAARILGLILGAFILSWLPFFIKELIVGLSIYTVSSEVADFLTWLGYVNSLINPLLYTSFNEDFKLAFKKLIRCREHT
Chain of 5-hydroxytryptamine receptor 6 (Homo sapiens) (P50406 whole entry): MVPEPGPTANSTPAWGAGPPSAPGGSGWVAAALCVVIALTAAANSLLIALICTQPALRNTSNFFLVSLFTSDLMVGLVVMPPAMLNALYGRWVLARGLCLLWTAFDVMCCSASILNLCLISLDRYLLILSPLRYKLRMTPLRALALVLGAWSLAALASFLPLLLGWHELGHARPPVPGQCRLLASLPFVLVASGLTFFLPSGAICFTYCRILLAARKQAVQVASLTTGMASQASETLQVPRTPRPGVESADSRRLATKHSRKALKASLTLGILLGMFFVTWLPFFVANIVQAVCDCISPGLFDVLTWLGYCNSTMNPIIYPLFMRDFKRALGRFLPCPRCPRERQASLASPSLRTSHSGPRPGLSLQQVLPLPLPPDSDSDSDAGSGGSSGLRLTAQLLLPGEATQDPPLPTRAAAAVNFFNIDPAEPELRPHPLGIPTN

As usually defined, the inhibition is the drop in the measured response relative to a control, in per cent. Turning to `CCc1ccc(OCc2ccccc2C(=O)Nc2ccc3nc(C)cc(N)c3c2)cc1`, the inhibition in experiment [1] is 9.69%; in experiment [2], 68.6%; in experiment [3] it was 24.7%; in experiment [4], 91.7%; in experiment [5], 91.2%; in experiment [6], 42.2%. For the same compound, the inhibition in experiment [7] is 46.5%; in [8], 46.5%; in experiment [9], 24%; in [10] it was 36%; in experiment [11], 87.4%; in [12], 45.6%.
Consider `CCCCN(CCCC)C(=O)CN1C[C@@H](c2ccc3c(c2)OCO3)[C@H](C(=O)O)[C@H]1c1ccc(OC)cc1`, for which the inhibition in experiment [1] was -0.09%; in experiment [2], -9.03%; in [3], 2.68%; in [4], -0.23%; in [6], 0.09%; in [8], -7.92%. Moreover, the inhibition in [9] was 30.2%; in experiment [10], -9.18%; in experiment [11], 5.56%; in experiment [12], 11.4%.
On to `Clc1cccc(COc2cncc(N3CCNCC3)n2)c1`, for which the inhibition in [1] is 76%; in [2], 28.7%; in experiment [3], 97.8%; in experiment [4], 86.4%; in experiment [5] it was 94.9%; in experiment [6], 33.7%. The inhibition in [7] is 97.9%; in experiment [8], 87.1%; in experiment [9], 85.1%; in [10] it was 2.44%; in experiment [11], 20.2%; in [12], 11.2%.
As for `COc1cc(-n2cnc3cc(-c4ccc(Cl)cc4)sc3c2=O)ccc1OCCN1CCCC1`, the inhibition in experiment [2] is 43.7%; in [3] it was 22.5%; in experiment [4] it was 94.7%; in experiment [5], 79.9%; in experiment [6] it was 70.6%; in [7], -7.71%. Also, the inhibition is 16.4% in experiment [8]; 64.9% in experiment [9]; 85.8% in [10]; 80.4% in [11]; 37.3% in experiment [12].
Regarding `COc1ccc(/C=C/CCCCOc2ccc(C(=O)c3cccc(C(=O)O)c3)cc2CCC(=O)O)cc1`, the inhibition in experiment [1] was 8.42%; in experiment [2] it was 30.7%; in [3], -4.61%; in [4], 2.85%; in experiment [5], 3.04%; in experiment [7] it was 29.1%. Also, the inhibition was -2.54% in experiment [8]; 3.16% in [9]; 11.1% in experiment [10]; -6.68% in experiment [11]; 11.7% in experiment [12].
For the compound `COc1cccc([C@@H](C)NCCCc2ccccc2Cl)c1`, the inhibition in experiment [1] is 4.34%; in experiment [2], 50.2%; in experiment [3] it was -2.74%; in experiment [4] it was 96.3%; in [5], 91.8%; in experiment [6], 45.1%. For the same compound, the inhibition is 84.3% in experiment [7]; 48.8% in [8]; 9.55% in experiment [9]; 26.1% in [10]; 64.6% in [11]; 24% in [12].
For the compound `CCOC(=O)c1c(C)[nH]c2ccc3c(c12)CN1CCc2cc(OC)ccc2C1O3` (stereo not drawn), the inhibition in [1] was -6.16%; in [2], 6.3%; in experiment [3], 75.4%; in experiment [4], 36.3%; in [6] it was 86.7%; in experiment [7], 10.8%. The inhibition was 9.23% in experiment [8]; 2.39% in [9]; 6.67% in experiment [10]; 51% in experiment [11]; 41.3% in [12].
`C[C@@H](NCCCc1cccc(C(F)(F)F)c1)c1cccc2ccccc12`: the inhibition is 18% in experiment [1]; 48% in experiment [2]; 15.4% in experiment [3]; 95.5% in [4]; 72.6% in experiment [5]; 27.9% in experiment [6]. For the same compound, the inhibition was 69.1% in experiment [7]; 51.6% in [8]; 7.94% in experiment [9]; 62.7% in experiment [10]; 60.8% in experiment [11]; 38.5% in experiment [12].
In the case of `COc1ccc(NS(=O)(=O)c2sc3ccc(Cl)cc3c2C)cc1N1CCNCC1`, the inhibition in experiment [1] is 13.8%; in experiment [2] it was 56.5%; in experiment [3], 73.3%; in experiment [4], 81.8%; in [5] it was 51.7%; in experiment [6] it was 75.7%. The inhibition in [7] was 87.3%; in experiment [8] it was 38.3%; in [9] it was 16.8%; in experiment [10] it was 37.7%; in experiment [11], 61.7%; in [12], 39.7%.

The record behind these values is ChEMBL document CHEMBL5442219.
